Source: US6448203B1, “Substituted aryluracils” (Bayer Aktiengesellschaft, priority 1997, dated 2002)

Tests used:
Amaranthus [1] = assay: Post-emergence test; format: in vivo; details: application rate of 250 glha, after three weeks, 0%=no effect, 100%=total destruction
Description: (§1) Post-Emergence Test Solvent: 5 parts by weight of acetone Emulsifier: 1 part by weight of alkylaryl polyglycol ether To produce a suitable preparation of active compound, 1 part by weight of active compound is mixed with the stated amount of solvent, the stated amount of emulsifier is added and the concentrate is diluted with water to the desired concentration. Test plants which have a height of 5-15 cm are sprayed with the preparation of active compound in such a way that the particular amounts of active compound desired are applied per unit area. The concentration of the spray liquor is chosen such that the particular amounts of active compound desired are applied in […] of water/ha. After three weeks, the degree of damage to the plants is rated in % damage in comparison to the development of the untreated control. The figures denote: 0%=no effect (like untreated control) 100%=total destruction

Setaria [2] = assay: Post-emergence test; format: in vivo; details: application rate of 250 glha, after three weeks, 0%=no effect, 100%=total destruction
Description: as §1

Sinapis [3] = assay: Post-emergence test; format: in vivo; details: application rate of 250 glha, after three weeks, 0%=no effect, 100%=total destruction
Description: as §1

Abutilon [4] = assay: Post-emergence test; format: in vivo; details: application rate of 250 glha, after three weeks, 0%=no effect, 100%=total destruction
Description: as §1

Amaranthus [5] = assay: Pre-emergence test; format: in vivo; details: application rate of 250 g/ha, after three weeks, 0%=no effect, 100%=total destruction
Description: (§2) Pre-Emergence Test Solvent: 5 parts by weight of acetone Emulsifier: 1 part by weight of alkylaryl polyglycol ether To produce a suitable preparation of active compound, 1 part by weight of active compound is mixed with the stated amount of solvent, the stated amount of emulsifier is added and the concentrate is diluted with water to the desired concentration. Seeds of the test plants are sown in normal soil. After about 24 hours, the soil is sprayed with the preparation of active compound in such a way as to apply the particular amounts of active compound desired per unit area. The concentration of the spray liquor is chosen such that the particular amounts of active compound desired are applied in 1000 l of water/ha. After three weeks, the degree of damage to the plants is rated in % damage in comparison to the development of the untreated control. The figures denote: 0%=no effect (like untreated control) 100%=total destruction

Setaria [6] = assay: Pre-emergence test; format: in vivo; details: application rate of 250 g/ha, after three weeks, 0%=no effect, 100%=total destruction
Description: as §2

Sinapis [7] = assay: Pre-emergence test; format: in vivo; details: application rate of 250 g/ha, after three weeks, 0%=no effect, 100%=total destruction
Description: as §2

Abutilon [8] = assay: Pre-emergence test; format: in vivo; details: application rate of 250 g/ha, after three weeks, 0%=no effect, 100%=total destruction
Description: as §2

[9] = system: mustard beetle larvae (Phaedon cochleariae); assay: Phaedon larvae test; format: in vivo; details: active compound concentration of 0.1%; after 7 days; dipped cabbage leaves (Brassica oleracea)
Description: Phaedon Larvae Test Solvent: 7 parts by weight of dimethylformamide Emulsifier: 1 part by weight of alkylaryl polyglycol ether To produce a suitable preparation of active compound, 1 part by weight of active compound is mixed with the stated amount of solvent and the stated amount of emulsifier, and the concentrate is diluted with water to the desired concentration. Cabbage leaves (Brassica oleracea) are treated by being dipped into the preparation of active compound of the desired concentration and are populated with mustard beetle larvae (Phaedon cochleariae) while the leaves are still moist. After the desired period of time, the kill in % is determined. 100% means that all beetle larvae have been killed; 0% means that none of the beetle larvae have been killed.

Row | Structure (SMILES) | melting point [°C] | degree of damage to the plants (% damage), Amaranthus (Amaranthus [1]) [%] | degree of damage to the plants (% damage), Setaria (Setaria [2]) [%] | degree of damage to the plants (% damage), Sinapis (Sinapis [3]) [%] | degree of damage to the plants (% damage), Abutilon (Abutilon [4]) [%] | degree of damage to the plants (% damage), Amaranthus (Amaranthus [5]) [%] | degree of damage to the plants (% damage), Setaria (Setaria [6]) [%] | degree of damage to the plants (% damage), Sinapis (Sinapis [7]) [%] | degree of damage to the plants (% damage), Abutilon (Abutilon [8]) [%] | kill in % [9] [%]
1 | O=c1cc(C(F)(F)F)[nH]c(=O)n1-c1ccc(OCc2ccc(Cl)nc2)cc1F [Example 1, 1-[2-fluoro-4-(2-chloro-pyridin-5-y1-methoxy)-phenyl]-4-trifluoromethyl-3,6-dihydro-2,6-dioxo-1(2H)-pyrimidine] | 212 |  |  |  |  |  |  |  |  | 
2 | Cn1c(C(F)(F)F)cc(=O)n(-c2ccc(OCc3ccc(Cl)nc3)cc2F)c1=O [Preparation Example 2, 1-[2-fluoro4-(2-chloro-pyridin-5-yl-methoxy)-phenyl]-3-methyl4-trifluoromethyl-3,6-dihydro-2,6-dioxo-1 (2H)-pyrimidine] | 164 | 100 | 100 | 100 | 100 | 100 | 100 | 100 | 100 | 
3 | Nn1c(C(F)(F)F)cc(=O)n(-c2ccc(OCc3ccc(Cl)nc3)cc2F)c1=O [Preparation Example 3, 3-amino-1-[2-fluoro4-(2-chloro-pyridin-5-yl-methoxy)-phenyl]4-trifluoromethyl-3,6-dihydro-2,6-dioxo-1 (2H)-pyrimidine] | 171 |  |  |  |  |  |  |  |  | 
4 | Nn1c(C(F)(F)F)cc(=O)n(-c2ccc(OCc3ccc(Cl)nc3)cc2F)c1=O [compound 3] |  | 100 | 100 | 100 | 100 | 100 | 100 | 100 | 100 | 100
